Article PMC4266452, “Prediction of Thorough QT study results using action potential simulations based on ion channel screens” (Journal of Pharmacological and Toxicological Methods, 2014)
Values joined by “and” are separate entries in the source; they are usually repeats but may differ in a detail not shown here. Equal entries are not always repeated. Where two headings read alike, the source gives them in different places.

What was measured:
[1] = cited from earlier work
CaV1.2 [2] = biological target: T1, CaV1.2 (Homo sapiens, UniProt Q13936); test: IonWorks Quattro CaV1.2 screen (AstraZeneca, Q)
NaV1.5 [3] = biological target: T2, NaV1.5 (Homo sapiens, UniProt Q14524); test: IonWorks Quattro NaV1.5 screen (AstraZeneca, Q)
hERG = hERG (Homo sapiens, UniProt Q12809); test: IonWorks Quattro hERG screen (AstraZeneca, Q)
[4] = Plasma concentration (Cmax) during the TQT study, total and calculated free; assay type: in vivo, human
KCNQ1/MinK = KCNQ1/MinK (Homo sapiens, UniProt P51787); test: IonWorks Quattro KCNQ1/MinK screen (AstraZeneca, Q); conditions: −log10 of IC50 in Molar
[5] = ref Gintant (2011); cited from earlier work
NaV1.5 [6] = biological target: T2, NaV1.5; test: Second IonWorks Quattro NaV1.5 screen (GSK, Q2)
Kv4.3/KChIP2.2 = biological target: T3, Kv4.3/KChIP2.2 (Homo sapiens, UniProt Q9UK17); test: IonWorks Quattro Kv4.3/KChIP2.2 screen (AstraZeneca, Q); assay type: cell-based; conditions: IonWorks Quattro, −log10 of IC50 in Molar, Hill n = 1
T3 sequence (Q9UK17 1-655): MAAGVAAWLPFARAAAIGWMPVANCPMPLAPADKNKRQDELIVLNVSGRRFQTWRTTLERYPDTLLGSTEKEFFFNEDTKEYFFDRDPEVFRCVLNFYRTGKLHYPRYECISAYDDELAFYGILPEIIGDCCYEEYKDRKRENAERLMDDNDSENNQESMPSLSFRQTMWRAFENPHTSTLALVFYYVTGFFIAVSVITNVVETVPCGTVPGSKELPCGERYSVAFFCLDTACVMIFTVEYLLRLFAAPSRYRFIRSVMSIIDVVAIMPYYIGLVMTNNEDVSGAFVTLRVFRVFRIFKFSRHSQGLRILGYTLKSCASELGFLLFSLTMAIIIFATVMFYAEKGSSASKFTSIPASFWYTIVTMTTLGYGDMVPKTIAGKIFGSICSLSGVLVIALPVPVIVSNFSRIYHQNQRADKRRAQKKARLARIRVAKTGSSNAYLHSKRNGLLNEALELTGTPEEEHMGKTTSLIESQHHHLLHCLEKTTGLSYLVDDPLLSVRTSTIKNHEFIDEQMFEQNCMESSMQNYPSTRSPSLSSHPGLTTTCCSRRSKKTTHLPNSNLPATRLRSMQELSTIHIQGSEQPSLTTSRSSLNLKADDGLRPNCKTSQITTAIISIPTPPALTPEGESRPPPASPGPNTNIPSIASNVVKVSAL
T3 sequence (Q9NS61 1-270 partner): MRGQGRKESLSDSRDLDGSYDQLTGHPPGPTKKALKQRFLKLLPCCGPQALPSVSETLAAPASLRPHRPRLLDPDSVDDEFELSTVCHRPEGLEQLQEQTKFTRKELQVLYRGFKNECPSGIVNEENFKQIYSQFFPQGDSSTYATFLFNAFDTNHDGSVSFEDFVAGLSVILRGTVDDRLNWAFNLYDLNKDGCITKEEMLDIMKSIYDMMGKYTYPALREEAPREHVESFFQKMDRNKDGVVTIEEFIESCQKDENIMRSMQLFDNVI

CaV1.2 [7] = biological target: T1, CaV1.2; test: IonWorks Barracuda CaV1.2 screen (GSK, B)
[8] = tested on: QT interval on the body surface ECG; conditions: ref Gintant (2011); cited from earlier work
[9] = IonWorks Quattro, −log10 of IC50 in Molar, Hill n = 1, 0.0 = pIC50 ≤ 0 fitted
[10] = Hill n = 1, 0.0 = pIC50 ≤ 0 fitted
[11] = second independent Quattro screening, −log10 of IC50 in Molar, 0.0 = pIC50 ≤ 0 fitted
[12] = Cmax high, calculated from ng/mL and molecular weight
[13] = Cmax high, calculated with PPB and molecular weight
[14] = Cmax low, calculated from ng/mL and molecular weight
[15] = Cmax low, calculated with PPB and molecular weight

| SMILES | CaV1.2 pIC50 (Q) (CaV1.2 [2]; [9]) | NaV1.5 pIC50 (Q) (NaV1.5 [3]; [9]) | KCNQ1 pIC50 (Q) (KCNQ1/MinK; [10]) | PPB (percent plasma binding) [5] | Kv4.3 pIC50 (Q) (Kv4.3/KChIP2.2; 0.0 = pIC50 ≤ 0 fitted) | NaV1.5 pIC50 (Q) (NaV1.5 [3]) | Cmax TOTAL ([1]; Cmax high, ref Gintant (2011)) [ng/mL] | Cmax TOTAL ([1]; Cmax low, ref Gintant (2011)) [ng/mL] | Free plasma concentration ([4]; Cmax high) [nM] | Cmax TOTAL [4, 12] [nM] | Cmax FREE ([4]; Cmax high, calculated with PPB) [ng/mL] | Cmax FREE [4, 13] [nM] | Free plasma concentration ([4]; Cmax low) [nM] | Cmax FREE ([4]; Cmax low, calculated with PPB) [ng/mL] | CaV1.2 pIC50 (B) (CaV1.2 [7]) | Cmax TOTAL [4, 14] [nM] | Cmax FREE [4, 15] [nM] | also measured |
| --- | --- | --- | --- | --- | --- | --- | --- | --- | --- | --- | --- | --- | --- | --- | --- | --- | --- | --- |
| C[C@H]1CN(C[C@H](Cc2ccccc2)C(=O)NCC(=O)O)CC[C@@]1(C)c1cccc(O)c1 [Alvimopan] | 5.3 | 3.6 | 4.3 | 70% |  |  |  |  |  |  |  |  |  |  |  |  |  | Cmax TOTAL ([1]; 12mg Capsule, ref Gintant (2011)): 9.9 ng/mL; IC50 (hERG): 63.1 mM; Cmax FREE ([4]; 12mg Capsule): 2.97 ng/mL and 6.996 nM; Cmax TOTAL ([4]; 12mg Capsule): 23.3199 nM; Free plasma concentration ([4]; 12mg Capsule): 6.996 nM; Cmax FREE ([4]; 24 extrapolate): 5.94 ng/mL and 13.9919 nM; Cmax TOTAL ([4]; 24 extrapolate): 19.8 ng/mL and 46.6398 nM; Free plasma concentration ([4]; 24 extrapolate): 13.99 nM |
| CO[C@H]1C[C@@H]2CC[C@@H](C)[C@@](O)(O2)C(=O)C(=O)N2CCCC[C@H]2C(=O)O[C@H]([C@H](C)C[C@@H]2CC[C@@H](OCCO)[C@H](OC)C2)CC(=O)[C@H](C)/C=C(\C)[C@@H](O)[C@@H](OC)C(=O)[C@H](C)C[C@H](C)/C=C/C=C/C=C/1C [Everolimus] |  |  | 4.0 | 74% | 2.0 | 3.2 |  |  |  |  |  |  |  |  |  |  |  | Cmax TOTAL ([1]; Cmax 50mg/kg, ref http://journals.lww.com/jto/pages/articleviewer.aspx?year=2011&issue=12000&article=00023&type=abstract Table 6): 251 ng/mL; NaV1.5 pIC50 (Q2) (NaV1.5 [6]): 3.7; Cmax FREE ([4]; Cmax 50mg/kg): 65.26 ng/mL; Cmax TOTAL ([4]; Cmax 50mg/kg): 261.943 nM |
| Nc1nnc(-c2cccc(Cl)c2Cl)c(N)n1 [Lamotrigine] |  | 4.0 |  | 55% PPB |  |  | 9610 | 7220 | 37525.9 | 37525.9 | 4324.5 | 37525.9 | 28193.2 | 3249 | 2.9 |  |  | NaV1.5 pIC50 (Q2) (NaV1.5 [6]; [11]): 4.4; CaV1.2 pIC50 (Q) (CaV1.2 [2]): 2.8 |
| Cc1nc2n(c(=O)c1CCN1CCC(c3noc4cc(F)ccc34)CC1)CCCC2O (stereo not drawn) [Paliperidone] |  | 4.6 |  | 73% PPB | 4.2 |  | 113 | 35 | 71.54 | 264.953 | 30.51 | 71.5374 | 22.16 | 9.45 | 3.0 | 82.0652 | 22.1576 | NaV1.5 pIC50 (Q2) (NaV1.5 [6]; [11]): 3.8; CaV1.2 pIC50 (Q) (CaV1.2 [2]): 3.4 |
| C[C@H](Cc1cc2c(c(C(N)=O)c1)N(CCCO)CC2)NCCOc1ccccc1OCC(F)(F)F [Silodosin] | 3.1 | 4.2 | 3.6 | 95% PPB | 3.5 |  | 144 | 42.5 | 14.53 | 290.598 | 7.2 | 14.530 | 4.288 | 2.125 |  | 85.767 | 4.288 | IC50 at 3 min (hERG; human, CHO K1 cells stably transfected with human ERG): 0.0251 mM |
| N[C@@H](CC(=O)N1CCn2c(nnc2C(F)(F)F)C1)Cc1cc(F)c(F)cc1F [Sitagliptin] | 1.0 |  | 3.5 | 30% PPB |  | 3.1 | 5468 | 498 |  |  | 3827.6 | 9397.17 |  | 348.6 |  |  | 855.851 | TQT study outcome in words (COMMENTS) [8]: Minimal effects at supratherapeutic concentrations; NaV1.5 pIC50 (Q2) (NaV1.5 [6]): 3.2 |
| CCN(CC)CCNC(=O)c1c(C)[nH]c(/C=C2\C(=O)Nc3ccc(F)cc32)c1C [Sunitinib] | 4.1 |  |  |  | 4.3 |  | 80.000 |  | 7.51 | 150.207 | 4.000 | 7.510 |  |  |  |  |  | CaV1.2 pIC50 (B) (CaV1.2 [7]; IonWorks Barracuda, −log10 of IC50 in Molar, Hill n = 1, 0.0 = pIC50 ≤ 0 fitted): 3.7 |
| Cc1cn([C@@H]2C[C@@H](O)[C@H](CO)O2)c(=O)[nH]c1=O [Telbivudine] |  |  | 3.6 | 3.3% |  | 2.5 | 6600 | 2200 |  | 27246.8 | 6382.2 | 26347.7 |  | 2127.4 |  | 9082.28 | 8782.56 | IC50 (hERG): 5.01 mM |
| Cc1ccc(O)c([C@H](CCN(C(C)C)C(C)C)c2ccccc2)c1 [Tolterodine] |  |  |  | 96.30% |  |  | 19.00 | 9.10 | 1.343 | 36.307 | 0.703 | 1.343 | 0.6434 | 0.337 | 4.6 | 17.389 | 0.643 | Kv4.3 pIC50 (Q) (Kv4.3/KChIP2.2; […]): 4.9; KCNQ1 pIC50 (Q) (KCNQ1/MinK; Hill n = 1, […]): 4.1 |
